Reference: article PMC3759295 (Toxicology letters, 2013)

Test system: CYP1A1 mRNA in primary human hepatocytes
Assay: CYP1A1 mRNA expression in primary human hepatocytes
Format: cell-based
[1] = hepatocyte culture LH45, 10 µM, 24 h
[2] = hepatocyte culture LH45, 50 µM, 24 h
[3] = hepatocyte culture LH46, 10 µM, 24 h
[4] = hepatocyte culture LH46, 50 µM, 24 h
[5] = hepatocyte culture LH47, 50 µM, 24 h
[6] = hepatocyte culture LH48 (so in the source), 50 µM, 24 h

| Structure (SMILES) | CYP1A1 mRNA fold induction over the vehicle-treated cells, LH45 (10 µM) [fold] | CYP1A1 mRNA fold induction over the vehicle-treated cells, LH46 (10 µM) [fold] | CYP1A1 mRNA fold induction over the vehicle-treated cells, LH45 (50 µM) [fold] | CYP1A1 mRNA fold induction over the vehicle-treated cells, LH46 (50 µM) [fold] | CYP1A1 mRNA fold induction over the vehicle-treated cells, LH47 (50 µM) [fold] | CYP1A1 mRNA fold induction over the vehicle-treated cells, LH48 (50 µM) [fold] | CYP1A1 mRNA fold induction over the vehicle-treated cells, LH45 [1] [fold] | CYP1A1 mRNA fold induction over the vehicle-treated cells, LH45 [2] [fold] | CYP1A1 mRNA fold induction over the vehicle-treated cells, LH46 [3] [fold] | CYP1A1 mRNA fold induction over the vehicle-treated cells, LH46 [4] [fold] | CYP1A1 mRNA fold induction over the vehicle-treated cells, LH47 [5] [fold] | CYP1A1 mRNA fold induction over the vehicle-treated cells, LH48 [6] [fold] |
| --- | --- | --- | --- | --- | --- | --- | --- | --- | --- | --- | --- | --- |
| C[C@@H]1O[C@@H](OC[C@H]2O[C@@H](Oc3cc4c(O)cc(O)cc4[o+]c3-c3ccc(O)c(O)c3)[C@H](O)[C@@H](O)[C@@H]2O)[C@H](O)[C@H](O)[C@H]1O.[Cl-] [CYA-2, cyanidin-3-O-rutinoside chloride] | 2.34 ± 0.28 | 0.55 ± 0.03 | 0.69 ± 0.25 | 0.91 ± 0.04 | 0.57 ± 0.09 | 0.07 ± 0.02 |  |  |  |  |  |  |
| OC[C@H]1O[C@@H](O[C@H]2[C@@H](Oc3cc4c(O)cc(O)cc4[o+]c3-c3ccc(O)c(O)c3)O[C@H](CO)[C@@H](O)[C@@H]2O)[C@H](O)[C@@H](O)[C@@H]1O.[Cl-] [CYA-4, cyanidin-3-O-sophoroside chloride] | 1.31 ± 0.25 | 2.97 ± 0.39 | 0.46 ± 0.03 | 0.28 ± 0.05 | 0.51 ± 0.16 | 0.05 ± 0.02 |  |  |  |  |  |  |
| Oc1cc(O)c2cc(O[C@@H]3OC[C@H](O)[C@H](O)[C@H]3O)c(-c3ccc(O)c(O)c3)[o+]c2c1.[Cl-] [CYA-5, cyanidin-3-O-arabinoside chloride] | 0.69 ± 0.06 | 0.67 ± 0.07 | 1.16 ± 0.17 | 0.61 ± 0.08 | 0.34 ± 0.11 | 0.07 ± 0.01 |  |  |  |  |  |  |
| C[C@@H]1O[C@@H](Oc2cc3c(O)cc(O)cc3[o+]c2-c2ccc(O)c(O)c2)[C@H](O)[C@H](O)[C@H]1O.[Cl-] [CYA-6, cyanidin-3-O-rhamnoside chloride] | 0.77 ± 0.12 | 1.19 ± 0.14 | 0.73 ± 0.04 | 1.36 ± 0.03 | 0.31 ±0.03 | 0.07 ± 0.00 |  |  |  |  |  |  |
| OC[C@H]1O[C@@H](Oc2cc3c(O)cc(O)cc3[o+]c2-c2ccc(O)c(O)c2)[C@H](O)[C@@H](O)[C@H]1O.[Cl-] [CYA-7, cyanidin-3-O-galactoside chloride] | 0.65 ± 0.11 | 2.62 ± 0.41 | 0.34 ± 0.06 | 1.85 ± 0.09 | 0.25 ± 0.02 | 0.05 ± 0.02 |  |  |  |  |  |  |
| OC[C@H]1O[C@@H](Oc2cc3c(O)cc(O)cc3[o+]c2-c2ccc(O)c(O)c2)[C@H](O[C@@H]2OC[C@@H](O)[C@H](O)[C@H]2O)[C@@H](O)[C@@H]1O.[Cl-] [CYA-8, cyanidin-3-O-sambubioside chloride] | 0.26 ± 0.01 | 1.48 ± 1.14 | 0.20 ± 0.04 | 1.72 ± 0.72 | 2.44 | 0.02 ± 0.00 |  |  |  |  |  |  |
| OC[C@H]1O[C@@H](Oc2cc3c(O)cc(O)cc3[o+]c2-c2ccc(O)c(O)c2)[C@H](O[C@@H]2OC[C@@H](O)[C@H](O)[C@H]2O)[C@@H](O)[C@H]1O.[Cl-] [CYA-9, cyanidin-3-O-lathyroside chloride] | 0.32 ± 0.12 | 0.91 ± 0.11 | 0.61 ± 0.05 | 1.77 ± 0.49 | 0.11 ± 0.17 | 0.09 ± 0.05 |  |  |  |  |  |  |
| OC[C@H]1O[C@@H](Oc2cc3c(O)cc(O)cc3[o+]c2-c2cc(O)c(O)c(O)c2)[C@H](O)[C@@H](O)[C@@H]1O.[Cl-] [DEL-1, delphinidin-3-O-glucoside chloride] |  |  |  |  |  |  | 1.80 ± 0.11 | 1.50 ± 0.21 | 1.99 ± 0.12 | 0.80 ± 0.07 | 1.01 ± 0.12 | 0.01 ± 0.00 |
| C[C@@H]1O[C@@H](OC[C@H]2O[C@@H](Oc3cc4c(O)cc(O)cc4[o+]c3-c3cc(O)c(O)c(O)c3)[C@H](O)[C@@H](O)[C@@H]2O)[C@H](O)[C@H](O)[C@H]1O.[Cl-] [DEL-2, delphinidin-3-O-rutinoside chloride] |  |  |  |  |  |  | 1.53 ± 0.36 | 0.53 ± 0.11 | 1.34 ± 0.10 | 0.68 ± 0.01 | 0.23 ± 0.05 | 0.02 ± 0.01 |
| OCC1OC(Oc2cc3c(OC4OC(CO)C(O)C(O)C4O)cc(O)cc3[o+]c2-c2cc(O)c(O)c(O)c2)C(O)C(O)C1O.[Cl-] (stereo not drawn) [DEL-3, delphinidin-3,5-di-O-glucoside chloride] |  |  |  |  |  |  | 0.82 ± 0.02 | 1.70 ± 3.26 | 0.85 ± 0.06 | 1.14 ± 0.21 | 0.39 ± 0.06 | 0.02 ± 0.01 |
| OC[C@H]1O[C@@H](Oc2cc3c(O)cc(O)cc3[o+]c2-c2cc(O)c(O)c(O)c2)[C@H](O[C@@H]2OC[C@@H](O)[C@H](O)[C@H]2O)[C@@H](O)[C@@H]1O.[Cl-] [DEL-4, delphinidin-3-O-sambubioside chloride] |  |  |  |  |  |  | 0.26 ± 0.21 | 0.34 ± 0.09 | 1.11 ± 0.20 | 1.31 ± 0.05 | 0.21 ± 0.26 | 0.07 ± 0.01 |
| C[C@@H]1O[C@@H](Oc2cc3c(O)cc(O)cc3[o+]c2-c2cc(O)c(O)c(O)c2)[C@H](O)[C@H](O)[C@H]1O.[Cl-] [DEL-5, delphinidin-3-O-rhamnoside chloride] |  |  |  |  |  |  | 0.48 ± 0.01 | 0.40 ± 0.09 | 0.98 ± 0.15 | 1.19 ± 0.18 | 0.26 ± 0.01 | 0.01 ± 0.01 |
